Structures are written as SMILES. Residues, ends and D or L forms follow the SMILES beside them.

In test [1] the target is T1, Endothelin-1 receptor (Mus musculus, UniProt Q61614).
T1 sequence (Q61614 whole entry): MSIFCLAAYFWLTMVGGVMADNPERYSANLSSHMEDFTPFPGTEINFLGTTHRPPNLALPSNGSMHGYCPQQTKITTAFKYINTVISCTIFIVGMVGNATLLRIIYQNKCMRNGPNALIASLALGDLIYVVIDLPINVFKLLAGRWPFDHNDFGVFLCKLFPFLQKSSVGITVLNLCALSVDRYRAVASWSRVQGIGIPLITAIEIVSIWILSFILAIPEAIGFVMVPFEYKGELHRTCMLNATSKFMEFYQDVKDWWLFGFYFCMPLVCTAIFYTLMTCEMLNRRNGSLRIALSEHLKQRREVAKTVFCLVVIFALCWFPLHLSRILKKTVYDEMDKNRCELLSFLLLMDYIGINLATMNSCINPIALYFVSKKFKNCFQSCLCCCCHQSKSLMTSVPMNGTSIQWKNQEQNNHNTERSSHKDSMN
Description: Inhibition of [125I]ET1 binding to Endothelin A receptor of murine 3T3 cells. The class given is cell-based, NIH3T3.

For test [2], the target named is T1, Endothelin-1 receptor. Kind of test: The compound was tested for the binding affinity against eEndothelin A receptor in murine 3T3 cells using [125I]ET1 as a radioligand. The class given is cell-based, NIH3T3.
Test [3] has as its target T2, Endothelin-1 receptor (Homo sapiens, UniProt P25101).
T2 sequence (P25101 whole entry): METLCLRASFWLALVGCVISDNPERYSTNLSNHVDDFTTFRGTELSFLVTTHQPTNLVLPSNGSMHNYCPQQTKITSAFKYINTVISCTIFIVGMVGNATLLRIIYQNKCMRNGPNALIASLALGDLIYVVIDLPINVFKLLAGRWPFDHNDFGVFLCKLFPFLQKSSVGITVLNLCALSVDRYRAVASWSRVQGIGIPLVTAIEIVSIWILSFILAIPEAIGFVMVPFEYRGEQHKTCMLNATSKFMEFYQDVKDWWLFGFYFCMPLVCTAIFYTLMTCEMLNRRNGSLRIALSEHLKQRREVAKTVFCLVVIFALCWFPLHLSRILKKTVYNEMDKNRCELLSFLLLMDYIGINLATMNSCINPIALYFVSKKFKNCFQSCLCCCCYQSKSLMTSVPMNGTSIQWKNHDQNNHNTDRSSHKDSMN
Kind of test: The inhibitory constant was evaluated against Endothelin A receptor.

As to `CC[C@H](C)[C@H](NC(=O)[C@H](CC(=O)O)NC(=O)[C@@H](Cc1ccccc1)NC(=O)[C@@H](Cc1ccccc1)NC(C)=O)C(=O)N[C@H](C(=O)N[C@@H](Cc1c[nH]c2ccccc12)C(=O)O)[C@@H](C)CC` (HELM PEPTIDE1{[ac].[dF].[dF].D.I.I.W}$$$$V2.0), in test [1], the IC50 (commonly the concentration needed to halve the response being measured) was determined as 98 nM.

`CC[C@H](C)[C@H](NC(=O)[C@H](CC(=O)O)NC(=O)[C@H](Cc1c[nH]c2ccccc12)NC(=O)[C@@H](Cc1ccccc1)NC(C)=O)C(=O)N[C@H](C(=O)N[C@@H](Cc1c[nH]c2ccccc12)C(=O)O)[C@@H](C)CC` yielded an IC50 in test [1] of 79 nM. On to `CC[C@H](C)[C@H](NC(=O)[C@H](CC(=O)O)NC(=O)[C@H](CCc1ccccc1)NC(=O)[C@@H](Cc1ccccc1)NC(C)=O)C(=O)N[C@H](C(=O)N[C@@H](Cc1c[nH]c2ccccc12)C(=O)O)[C@@H](C)CC`, for which the IC50 in test [1] worked out at 70 nM. Still for that read-out and setting: under `CC[C@H](C)[C@H](NC(=O)[C@H](CC(=O)O)NC(=O)[C@H](CCCN)NC(=O)[C@@H](Cc1c[nH]c2ccccc12)NC(C)=O)C(=O)N[C@H](C(=O)N[C@@H](Cc1c[nH]c2ccccc12)C(=O)O)[C@@H](C)CC` stands 15 nM. `CC[C@H](C)[C@H](NC(=O)[C@H](CC(=O)O)NC(=O)[C@H](CCCN)NC(=O)[C@@H](Cc1ccccc1)NC(C)=O)C(=O)N[C@H](C(=O)N[C@@H](Cc1c[nH]c2ccccc12)C(=O)O)[C@@H](C)CC` (HELM PEPTIDE1{[ac].[dF].[Orn].D.I.I.W}$$$$V2.0) displayed an IC50 in test [2] of 230 nM. Take `CC[C@H](C)[C@@H](NC(=O)[C@@H](CC(=O)O)NC(=O)[C@H]1CCCN1C(=O)[C@@H](Cc1ccccc1)NC(C)=O)C(=O)N[C@@H](C(=O)N[C@H](Cc1c[nH]c2ccccc12)C(=O)O)[C@@H](C)CC`: the IC50 was 15 nM in test [3] and 45 nM in test [1] (nih3t3). Consider `CC[C@H](C)[C@H](NC(=O)[C@H](CC(=O)O)NC(=O)CN(Cc1ccccc1)C(=O)[C@@H](Cc1ccccc1)NC(C)=O)C(=O)N[C@H](C(=O)N[C@@H](Cc1c[nH]c2ccccc12)C(=O)O)[C@@H](C)CC`, for which the IC50 is 30 nM in test [3] and 12 nM in test [1]. With `CC[C@H](C)[C@H](NC(=O)[C@H](CC(=O)O)NC(=O)[C@H](Cc1ccc(O)cc1)NC(=O)[C@@H](Cc1ccccc1)NC(C)=O)C(=O)N[C@H](C(=O)N[C@@H](Cc1c[nH]c2ccccc12)C(=O)O)[C@@H](C)CC`, the IC50 in test [1] came to 77 nM. On the same count and under the same terms, the figure for `CC[C@H](C)[C@H](NC(=O)[C@H](CC(=O)O)NC(=O)[C@H](CC(N)=O)NC(=O)[C@@H](Cc1ccccc1)NC(C)=O)C(=O)N[C@H](C(=O)N[C@@H](Cc1c[nH]c2ccccc12)C(=O)O)[C@@H](C)CC` is 75 nM.

Take `CC[C@H](C)[C@H](NC(=O)[C@H](CC(=O)O)NC(=O)[C@H](CCCN)NC(=O)[C@@H](Cc1ccc(O)cc1)NC(C)=O)C(=O)N[C@H](C(=O)N[C@@H](Cc1c[nH]c2ccccc12)C(=O)O)[C@@H](C)CC`: the figures for the IC50 in test [3] and in test [1] were 400 nM and 26 nM, respectively. In test [1], `CC[C@H](C)[C@H](NC(=O)[C@H](CCc1ccccc1)NC(=O)[C@H](CC(=O)O)NC(=O)[C@H](CCCN)NC(=O)[C@@H](Cc1ccccc1)NC(C)=O)C(=O)N[C@@H](Cc1c[nH]c2ccccc12)C(=O)O` came in with an IC50 of 114 nM. Take `CC[C@H](C)[C@H](NC(=O)[C@H](CC(=O)O)NC(=O)[C@H](C)NC(=O)[C@@H](Cc1ccccc1)NC(C)=O)C(=O)N[C@H](C(=O)N[C@@H](Cc1c[nH]c2ccccc12)C(=O)O)[C@@H](C)CC` (HELM PEPTIDE1{[ac].[dF].A.D.I.I.W}$$$$V2.0): the IC50 in test [1] came out at 57 nM. Turning to `CC[C@H](C)[C@H](NC(=O)[C@H](CC(=O)O)NC(=O)[C@H](Cc1ccccc1)NC(=O)[C@@H](Cc1ccccc1)NC(C)=O)C(=O)N[C@H](C(=O)N[C@@H](Cc1c[nH]c2ccccc12)C(=O)O)[C@@H](C)CC` (HELM PEPTIDE1{[ac].[dF].F.D.I.I.W}$$$$V2.0), in test [1], the IC50 stood at 270 nM.

The values above are taken from ChEMBL document CHEMBL1127202, “Endothelin receptor ligands. replacement net approach to SAR determination of potent hexapeptides” (Bioorg Med Chem Lett, 1993).
